TGI data for 13 compounds are collected here from PubChem BioAssay (NCI).

Some test systems named below: A549 NSCLC; EKVX NSCLC; HCT-116 colon; HT29 colon; MALME-3M melanoma; MDA-MB-435; NCI-H23 lung; NCI-H522 lung; OVCAR-3 ovarian; OVCAR-5 ovarian; SF-295 CNS; SF-539 CNS; SK-OV-3 ovarian; SN12C renal; SW-620 colon; TK-10 renal; UACC-257 melanoma; UACC-62 melanoma.
What all share (experiment): NCI anticancer screen, dose series, 48 h

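1) Cells in 96-well plates. 2) Compound, 48 h, 5 concentrations. 3) Linear interpolation between surrounding doses. 4) Unreached endpoint = highest concentration. TGI is the concentration that stops growth completely.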

Consider `O=c1[nH]nc(Cc2ccccc2)n1/N=C/c1ccccc1O`, for which the TGI in the assay with A549 NSCLC, in the assay on EKVX NSCLC, in the assay with HCT-116 colon, in the assay on HT29 colon, in the assay on MALME-3M melanoma and in the assay with MDA-MB-435 was above 100 µM throughout. Further, the TGI in the assay with NCI-H23 lung, in the assay on NCI-H522 lung, in the assay with OVCAR-3 ovarian, in the assay on OVCAR-5 ovarian, in the assay on SF-295 CNS and in the assay on SF-539 CNS was above 100 µM each time. The TGI in the assay with SK-OV-3 ovarian, in the assay on SN12C renal, with SW-620 colon, in the assay with TK-10 renal, in the assay on UACC-257 melanoma and with UACC-62 melanoma was above 100 µM each time.
`CC12CC(c3ccccc3O1)C(C(=O)Nc1ccc(Cl)cc1Cl)C(=O)N2` (stereo unspecified): the TGI with A549 NSCLC is 56.8 µM; in the assay on EKVX NSCLC it was 50.2 µM; with HCT-116 colon, above 100 µM; in the assay on HT29 colon it was above 100 µM; with MALME-3M melanoma it was 89.8 µM; in the assay with MDA-MB-435, above 100 µM. Also, the TGI in the assay with NCI-H23 lung, in the assay on NCI-H522 lung, in the assay on OVCAR-3 ovarian, in the assay on OVCAR-5 ovarian, with SF-295 CNS and in the assay on SF-539 CNS was above 100 µM in each case. Also, the TGI in the assay on SK-OV-3 ovarian, in the assay with SW-620 colon, with UACC-257 melanoma and in the assay with UACC-62 melanoma was above 100 µM throughout.
Take `CN(C)C1(N(C)C)Oc2c(c(=O)n(C)c(=O)n2C)C(c2ccccc2)C1(F)F` (stereo unspecified): the TGI in the assay with A549 NSCLC, in the assay with EKVX NSCLC, with HCT-116 colon, with MDA-MB-435, with NCI-H23 lung and with OVCAR-3 ovarian was above 100 µM throughout. Also, the TGI with OVCAR-5 ovarian, with SF-295 CNS, with SK-OV-3 ovarian, with SW-620 colon, in the assay on TK-10 renal and in the assay with UACC-257 melanoma was above 100 µM each time. The compound also returned a TGI with UACC-62 melanoma above 100 µM.
In the case of `O=C(Nc1nc(C23CC4CC(CC(C4)C2)C3)cs1)c1cc2ccc(O)cc2oc1=O`, the TGI in the assay with A549 NSCLC is 38.3 µM; with EKVX NSCLC, 43.3 µM; with HCT-116 colon it was 25.6 µM; in the assay on HT29 colon, 27.4 µM; with MALME-3M melanoma, 34.5 µM; in the assay on MDA-MB-435, 31.8 µM. Besides, the TGI is 38.4 µM with NCI-H23 lung; 45.6 µM in the assay with NCI-H522 lung; 60.5 µM in the assay on OVCAR-3 ovarian; 48.5 µM in the assay on OVCAR-5 ovarian; 48.4 µM in the assay on SF-295 CNS; 86.6 µM in the assay on SF-539 CNS. Moreover, the TGI in the assay with SN12C renal is 30.4 µM; with SW-620 colon it was 22 µM; in the assay with TK-10 renal, above 100 µM; with UACC-257 melanoma it was 44.1 µM.
For `CSc1nc(Nc2cccc(C(F)(F)F)c2)c2c(N)nn(C)c2n1`, the TGI with A549 NSCLC, with HCT-116 colon, in the assay on HT29 colon, in the assay on MALME-3M melanoma, with MDA-MB-435 and in the assay with NCI-H23 lung was above 100 µM throughout. The TGI in the assay with NCI-H522 lung, in the assay on OVCAR-3 ovarian, in the assay with OVCAR-5 ovarian, with SF-295 CNS, in the assay with SK-OV-3 ovarian and in the assay on SN12C renal was above 100 µM in each case. Further, the TGI in the assay with SW-620 colon, with TK-10 renal, with UACC-257 melanoma and in the assay on UACC-62 melanoma was above 100 µM in each case.
As to `CN=C(N=Nc1c(O)[nH]c2ccccc12)SCC(=O)c1ccc(Br)cc1`, the TGI was 20 µM in the assay with A549 NSCLC; above 62.8 µM in the assay on EKVX NSCLC; 19.7 µM in the assay on HCT-116 colon; above 43.5 µM with HT29 colon; above 47.1 µM in the assay on MALME-3M melanoma; above 42.3 µM in the assay with MDA-MB-435. Further, the TGI is 51.1 µM with NCI-H23 lung; above 56.7 µM in the assay with NCI-H522 lung; 28.2 µM in the assay on OVCAR-3 ovarian; above 88.8 µM with OVCAR-5 ovarian; 49.6 µM in the assay with SF-295 CNS; 23.8 µM with SF-539 CNS. Moreover, the TGI in the assay on SK-OV-3 ovarian was 28.4 µM; with SN12C renal, above 48.7 µM; with SW-620 colon, above 34.1 µM; with TK-10 renal it was 37.7 µM; in the assay on UACC-257 melanoma, above 20 µM; in the assay with UACC-62 melanoma, above 100 µM.
Regarding `CCCCNC(=S)Nc1nc(C(=O)NNC(=S)Nc2ccccc2)cs1`, the TGI in the assay on A549 NSCLC, in the assay with EKVX NSCLC, with HCT-116 colon, in the assay with HT29 colon, in the assay with MDA-MB-435 and in the assay with NCI-H23 lung was above 100 µM each time. The TGI in the assay on OVCAR-3 ovarian, in the assay on OVCAR-5 ovarian, in the assay with SF-295 CNS, with SF-539 CNS, with SK-OV-3 ovarian and in the assay with SN12C renal was above 100 µM in each case. Besides, the TGI in the assay with SW-620 colon, in the assay with TK-10 renal, with UACC-257 melanoma and in the assay on UACC-62 melanoma was above 100 µM throughout.
Turning to `COc1ccc(S(=O)(=O)c2nnc(S(=O)(=O)Cc3ccccc3)s2)cc1`, the TGI in the assay with A549 NSCLC amounted to 49.3 µM; in the assay with EKVX NSCLC, 57.2 µM; in the assay on HCT-116 colon, 38.1 µM; with HT29 colon it was 43.8 µM; with MDA-MB-435, 71.8 µM; in the assay with NCI-H23 lung, 62.3 µM. In addition, the TGI was 27.1 µM in the assay on NCI-H522 lung; above 100 µM in the assay on OVCAR-3 ovarian; 54.5 µM in the assay with OVCAR-5 ovarian; 90.1 µM with SF-295 CNS; 50.1 µM in the assay with SF-539 CNS; 44.6 µM with SK-OV-3 ovarian. The TGI with SN12C renal amounted to 52.9 µM; in the assay with SW-620 colon, 44 µM; with TK-10 renal, 39.6 µM; in the assay with UACC-257 melanoma it was 31.4 µM.
Turning to `COc1ccc(C(OCC2OC(n3cc(C)c(=O)[nH]c3=O)CC2n2cc(Cn3cc(Cl)c(=O)[nH]c3=O)nn2)(c2ccccc2)c2ccccc2)cc1` (stereo unspecified), the TGI in the assay on A549 NSCLC, with EKVX NSCLC, in the assay with HCT-116 colon, in the assay with HT29 colon, with MALME-3M melanoma and in the assay on MDA-MB-435 was above 100 µM in each case. Besides, the TGI with NCI-H23 lung, in the assay on NCI-H522 lung, with OVCAR-3 ovarian, with OVCAR-5 ovarian, in the assay with SF-295 CNS and with SF-539 CNS was above 100 µM in each case. Moreover, the TGI in the assay on SK-OV-3 ovarian, in the assay on SN12C renal, in the assay with SW-620 colon, in the assay on TK-10 renal, in the assay on UACC-257 melanoma and in the assay on UACC-62 melanoma was above 100 µM throughout.
In the case of `CCCCCCOC(=O)/C=C/[C@]1(CO)C/C(=C/CC(C(C)C)C(C)C)C(=O)O1`, the TGI stood at 18.4 µM with A549 NSCLC; 13.4 µM in the assay with EKVX NSCLC; 25.9 µM in the assay on HCT-116 colon; 20.8 µM with HT29 colon; 25.7 µM in the assay on MALME-3M melanoma; 15.1 µM in the assay with MDA-MB-435. Besides, the TGI was 25 µM in the assay with NCI-H23 lung; 25.9 µM with NCI-H522 lung; 29.8 µM in the assay on OVCAR-3 ovarian; 25.6 µM in the assay with OVCAR-5 ovarian; 29.8 µM in the assay with SF-295 CNS; 37.7 µM with SK-OV-3 ovarian. In addition, the TGI in the assay on SW-620 colon came out at 27.7 µM; in the assay on TK-10 renal, 14 µM; in the assay on UACC-257 melanoma it was 31.6 µM; with UACC-62 melanoma, 27.3 µM.
In the case of `COC(=O)c1cc2ccc(N)nc2[nH]c1=O`, the TGI in the assay with A549 NSCLC, with EKVX NSCLC, in the assay on HCT-116 colon, in the assay on MALME-3M melanoma, with MDA-MB-435 and in the assay on NCI-H23 lung was above 100 µM in each case. In addition, the TGI in the assay on NCI-H522 lung, with OVCAR-3 ovarian, in the assay with OVCAR-5 ovarian, in the assay with SF-295 CNS, in the assay with SF-539 CNS and with SK-OV-3 ovarian was above 100 µM in each case. Moreover, the TGI with SN12C renal, in the assay with SW-620 colon, with TK-10 renal and in the assay with UACC-257 melanoma was above 100 µM each time.
Regarding `Cc1ccc(-n2c(N)c(C#N)c3[nH]nc(N)c3c2=O)cc1`, the TGI with EKVX NSCLC, with HCT-116 colon, with HT29 colon, with MDA-MB-435, in the assay on NCI-H23 lung and with SF-295 CNS was above 100 µM throughout. Further, the TGI in the assay on SF-539 CNS, with SK-OV-3 ovarian, in the assay on SW-620 colon, in the assay with TK-10 renal, in the assay with UACC-257 melanoma and with UACC-62 melanoma was above 100 µM each time.
Take `N#Cc1c(N)n(-c2cccc(C(=O)O)c2)c(=O)c2cc([N+](=O)[O-])ccc12`: the TGI with A549 NSCLC, with HCT-116 colon, in the assay with HT29 colon, in the assay on MDA-MB-435, in the assay with NCI-H23 lung and with SN12C renal was above 100 µM in each case. For the same compound, the TGI in the assay with SW-620 colon, in the assay with TK-10 renal, in the assay with UACC-257 melanoma and with UACC-62 melanoma was above 100 µM throughout.
